These compounds were tested against ULK1 (Homo sapiens, UniProt O75385) (assay: ULK1 inhibition assay (Table 1)). Conditions: * = tested as a mixture of regioisomers.
Assay type: biochemical

Chain of ULK1 (O75385 whole entry, looked up): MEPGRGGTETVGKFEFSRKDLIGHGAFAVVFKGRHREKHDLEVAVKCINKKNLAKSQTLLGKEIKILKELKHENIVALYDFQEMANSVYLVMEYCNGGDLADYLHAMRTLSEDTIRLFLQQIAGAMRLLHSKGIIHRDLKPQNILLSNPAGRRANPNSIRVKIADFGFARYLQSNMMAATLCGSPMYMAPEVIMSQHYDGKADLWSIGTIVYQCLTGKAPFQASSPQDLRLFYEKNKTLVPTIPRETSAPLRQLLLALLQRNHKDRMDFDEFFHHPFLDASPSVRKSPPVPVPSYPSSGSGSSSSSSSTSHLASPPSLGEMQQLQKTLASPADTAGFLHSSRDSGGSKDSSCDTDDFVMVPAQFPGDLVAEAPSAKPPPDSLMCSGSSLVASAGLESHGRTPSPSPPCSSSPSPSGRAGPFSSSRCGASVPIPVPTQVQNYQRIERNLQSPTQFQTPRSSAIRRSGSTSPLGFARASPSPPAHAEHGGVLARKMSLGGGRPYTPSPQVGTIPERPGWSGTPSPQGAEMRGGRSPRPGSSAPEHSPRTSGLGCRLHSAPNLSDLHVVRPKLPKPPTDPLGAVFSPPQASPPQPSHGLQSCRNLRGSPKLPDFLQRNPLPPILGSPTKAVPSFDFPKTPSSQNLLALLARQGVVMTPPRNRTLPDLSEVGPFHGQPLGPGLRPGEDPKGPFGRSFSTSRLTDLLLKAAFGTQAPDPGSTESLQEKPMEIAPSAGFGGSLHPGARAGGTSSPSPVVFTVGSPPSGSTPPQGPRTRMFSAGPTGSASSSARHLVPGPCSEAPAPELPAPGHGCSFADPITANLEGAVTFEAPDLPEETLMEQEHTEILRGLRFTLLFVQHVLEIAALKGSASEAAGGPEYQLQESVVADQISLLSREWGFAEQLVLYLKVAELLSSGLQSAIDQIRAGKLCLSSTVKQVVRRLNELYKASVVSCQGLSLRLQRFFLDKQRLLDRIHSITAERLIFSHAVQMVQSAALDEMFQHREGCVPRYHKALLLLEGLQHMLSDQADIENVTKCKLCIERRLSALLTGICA

| SMILES | IC50 [nM] |
| --- | --- |
| O=C1CCc2cc(Nc3ncc(C(F)(F)F)c(NCCO)n3)ccc2N1 [Example 197, 6-((4-((2-hydroxyethyl)amino)-5-(trifluoromethyl)pyrimidin-2-yl)amino)-3,4-dihydroquinolin-2(1H)-one] | < 200 |
| FC(F)(F)c1cnc(Nc2ccc3nc[nH]c3c2)nc1Nc1cc(C2CCC2)[nH]n1 [Example 297, N2-(1H-benzo[d]imidazol-6-yl)-N4-(5-cyclobutyl-1H-pyrazol-3-yl)-5-(trifluoromethyl)pyrimidine-2,4-diamine] | < 200 |
| CNC(=O)c1ccccc1Nc1nc(Nc2cnc3[nH]ccc3c2)ncc1C(F)(F)F [Example 201, 2-((2-((1H-pyrrolo[2,3-b]pyridin-5-yl)amino)-5-(trifluoromethyl)pyrimidin-4-yl)amino)-N-methylbenzamide] | < 200 |
| FC(F)(F)c1cnc(Nc2ccc3ncccc3c2)nc1NC1CC1 [Example 264, N4-cyclopropyl-N2-(quinolin-6-yl)-5-(trifluoromethyl) pyrimidine-2,4-diamine] | < 200 |
| O=c1[nH]c2ccc(Nc3ncc(Br)c(NC4CC4)n3)cc2[nH]1 [Example 236, 5-((5-bromo-4-(cyclopropylamino)pyrimidin-2-yl)amino)-1,3-dihydro-2H-benzo[d]imidazol-2-one] | < 200 |
| CC1(Nc2nc(Nc3ccc4c(c3)CCC(=O)N4)ncc2C(F)(F)F)COC1 [Example 220a, 6-((4-((3-methyloxetan-3-yl)amino)-5-(trifluoromethyl)pyrimidin-2-yl)amino)-3,4-dihydroquinolin-2(1H)-one] | > 2000 |
| COc1cc(Nc2ncc(Br)c(NC3CC3)n2)cc(OC)c1OC [Example 186, 5-bromo-N4-cyclopropyl-N2-(3,4,5-trimethoxyphenyl)pyrimidine-2,4-diamine] | < 200 |
| COc1cc(Nc2ncc(Br)c(Nc3ccccc3CO)n2)cc(OC)c1OC [Example 303, (2-((5-bromo-2-((3,4,5-trimethoxyphenyl)amino)pyrimidin-4-yl)amino)phenyl)methanol] | < 200 |
| CCC(=O)c1ccccc1Oc1nc(Nc2cc(OC)c(OC)c(OC)c2)ncc1Br [Example 260, 1-(2-((5-bromo-2-((3,4,5-trimethoxyphenyl)amino)pyrimidin-4-yl)oxy)phenyl)propan-1-one] | < 200 |
| CCONc1nc(Nc2ccc3c(c2)CCC(=O)N3)ncc1C(F)(F)F [Example 219, 6-((4-(ethoxyamino)-5-(trifluoromethyl)pyrimidin-2-yl)amino)-3,4-dihydroquinolin-2(1H)-one] | > 2000 |
| O=C1CCc2cc(Nc3ncc(C(=O)O)c(NC4CC4)n3)ccc2N1 [Example 286, 4-(cyclopropylamino)-2-((2-oxo-1,2,3,4-tetrahydroquinolin-6-yl)amino)pyrimidine-5-carboxylic Acid] | > 2000 |
| O=C1CCCc2cc(Nc3ncc(C(F)(F)F)c(NC4CC4)n3)ccc21 [Example 301, 6-((4-(cyclopropylamino)-5-(trifluoromethyl)pyrimidin-2-yl)amino)-3,4-dihydronaphthalen-1(2H)-one] | < 200 |
| Nc1nc(Nc2cnc3[nH]ccc3c2)ncc1C(F)(F)F [Example 217, N2-(1H-pyrrolo[2,3-b]pyridin-5-yl)-5-(trifluoromethyl) pyrimidine-2,4-diamine] | > 2000 |
| COC(=O)CNc1nc(Nc2ccc3c(c2)CCC(=O)N3)ncc1C(F)(F)F [Example 218, Methyl (2-((2-oxo-1,2,3,4-tetrahydroquinolin-6-yl)amino)-5-(trifluoromethyl)pyrimidin-4-yl)glycinate] | > 2000 |
| FC(F)(F)c1cnc(N2CCCC2c2cccnc2)nc1NC1CC1 (stereo not shown) [Example 228, N-cyclopropyl-2-(2-(pyridin-3-yl)pyrrolidin-1-yl)-5-(trifluoromethyl)pyrimidin-4-amine] | > 2000 |
| FC(F)(F)c1cnc(Nc2ccc3c(c2)OCCCO3)nc1NC1CC1 [Example 190, N4-cyclopropyl-N2-(3,4-dihydro-2H-benzo[b][1,4]dioxepin-7-yl)-5-(trifluoromethyl)pyrimidine-2,4-diamine] | < 200 |
| FC(F)(F)c1cnc(Nc2ccc3nn[nH]c3c2)nc1NC1CC1 [Example 188, N2-(1H-benzo[d][1,2,3]triazol-6-yl)-N4-cyclopropyl-5-(trifluoromethyl)pyrimidine-2,4-diamine] | < 200 |

The compounds below were run on PC3 prostate-cancer cell line stably expressing GFP-LC3 (assay: GFP-LC3 puncta high-throughput microscopy). Conditions: control siRNA cells, 1 μM mTOR catalytic inhibitor for 4 hr.
Assay type: cell-based, human
Procedure: At 48 hr after RNAi transfection, the cells were treated with 1 μM of the catalytic mTOR inhibitors AZD8055 or INK128 for 4 hr and assessed for the presence of GFP-LC3 puncta. The average number of GFPLC3 puncta and SD for each siRNA and drug treatment are shown. SRC, c-Src; c-Src kinase, CSK.
(§1) To test the ability of compound 14 to block autophagy and cell survival, initial studies were performed in A549 lung cancer cells, which are highly sensitive to mTOR inhibition. […] Next, we genetically assessed the requirement for ULK1 versus other kinases inhibited by compound 14 to induce autophagy after pharmacological mTOR inhibition. A robust high-throughput microscopy method for quantifying GFP-LC3 puncta was established using a PC3 prostate-cancer cell line stably expressing a GFP-LC3 construct. Using this assay, we performed a focused RNAi analysis of the top 20 kinases identified in the DiscovRx screen as best binding to compound 14. […] Strikingly, of the 18 kinases tested, only one kinase siRNA, ULK1, nearly fully abolished the LC3 puncta induced by the mTOR inhibitors (FIG. 9D).

| SMILES | induction in GFP-LC3 puncta formation [fold] |
| --- | --- |
| COc1ccc(-c2ccc3c(N4CCOC[C@@H]4C)nc(N4CCOC[C@@H]4C)nc3n2)cc1CO [AZD8055, (5-(2,4-bis((S)-3-methylmorpholino)pyrido[2,3-d]pyrimidin-7-yl)-2-methoxyphenyl)methanol, reference compound] | 2 |
| CC(C)n1nc(-c2ccc3oc(N)nc3c2)c2c(N)ncnc21 [INK128, 3-(2-amino-5-benzoxazolyl)-1-(1-methylethyl)-1H-pyrazolo[3,4-d]pyrimidin-4-amine] | 2 |

These compounds were tested on A549 lung cancer cells (assay: Cyto-ID autophagy dye detection of autophagic vacuoles). Conditions: 5-μM 6965 with AZD8055.
Assay type: cell-based
Procedure: FIG. 9E is an immunoflourescence imaging of A549 cells treated in the presence or absence of 5 μM compound 14 for 2 hr followed by 4 μM of the mTOR catalytic inhibitor AZD8055 for 24 hr. Autophagic vacuoles were detected using the Cyto-ID autophagy detection kit and are visualized in green, while cell nuclei were counterstained by DAPI and are visualized in blue.
as §1

| SMILES | effect on AZD8055-induced autophagy (Cyto-ID dye accumulation) |
| --- | --- |
| CNC(=O)c1ccccc1Nc1nc(Nc2cc(OC)c(OC)c(OC)c2)ncc1Br [compound 14, 2-(5-bromo-2-(3,4,5-trimethoxyphenylamino)pyrimidin-4-ylamino)-N-methylbenzamide] | strongly suppressed |

Same assay, conditions: AZD8055 alone

| SMILES | autophagy induction (Cyto-ID dye accumulation) |
| --- | --- |
| COc1ccc(-c2ccc3c(N4CCOC[C@@H]4C)nc(N4CCOC[C@@H]4C)nc3n2)cc1CO [AZD8055, (5-(2,4-bis((S)-3-methylmorpholino)pyrido[2,3-d]pyrimidin-7-yl)-2-methoxyphenyl)methanol, reference compound] | induced robust autophagy |

The compounds below were run on endogenous ULK1 activity (assay: mobility shift of endogenous Beclin1 and Atg13 (endogenous ULK1 activity) in MEFs). Conditions: WT MEFs, 10 μM co-treatment, 1 hr.
Assay type: cell-based, mouse
Procedure: FIG. 7D: WT or Ulk1/Ulk2 double knockout mouse embryonic fibroblasts (MEFs) were treated with fresh media (Dulbecco's modified Eagle medium [DMEM] containing 10% FBS) containing 1-μM INK128, 1-μM AZD8055, or DMSO or with starvation media (EBSS) in the presence or absence of 10 μM compound 14. Cellular lysates were isolated after 1 hr of treatment and immunoblotted with the indicated antibodies. Asterisk denotes non-specific band.
We next examined whether compound 14 inhibits endogenous ULK1 activity. To activate endogenous ULK1, we treated MEFs with either amino acid starvation media (Earle's balanced salt solution [EBSS]) or the mTOR ATP-competitive inhibitors INK128 or AZD8055. In WT MEFs, we observed a mobility shift in endogenous Beclin1 and Atg13 in response to EBSS starvation media or the mTOR catalytic inhibitors, which was abolished in Ulk1/2-deficient MEFs (FIG. 7D). […] In certain embodiments, the mobility shifts observed in endogenous Beclin1 and Atg13 induced by mTOR inhibitors and starvation media reflect phosphorylation of endogenous Beclin1/Atg13 by endogenous ULK1/2 as they only occur in WT but not Ulk1/2-deficient MEFs.

| SMILES | EBSS and mTOR-inhibitor induced mobility shift in Beclin1 and Atg13 |
| --- | --- |
| CNC(=O)c1ccccc1Nc1nc(Nc2cc(OC)c(OC)c(OC)c2)ncc1Br [compound 14, 2-(5-bromo-2-(3,4,5-trimethoxyphenylamino)pyrimidin-4-ylamino)-N-methylbenzamide] | inhibited |

— patent publication US10774092B2 (SALK INSTITUTE FOR BIOLOGICAL STUDIES, priority 2014, dated 2020)
